# Numbers after ± are expanded uncertainties.
# Key:
# [1] = refractive index (Na D-line) (dimensionless); settings: 298.15 K; 101.33 kPa; Liquid; Standard Abbe refractometry
# [2] = 298.15 K; 101.33 kPa; Liquid; Pycnometric method
refractive index [1],mass density [2] [kg/m3],SMILES
1.43159 ± 0.012,–,"OCCO [1,2-ethanediol]"
1.43262 ± 0.012,1032.7 ± 0.4,"CC(O)CO (centres undefined) [1,2-propanediol]"
1.33299 ± 0.012,–,O [water]

# — the NIST ThermoML archive (doi:10.1021/acs.jced.8b01128)
